We go through 19 compounds from patent US6093714A, “Tricyclic benzazepine compounds” (priority 1995, dated 2000).

Test [1] has as its system allergic foot-pad edema reaction. Description: Immediate and late phase allergic response inhibition test (allergic foot-pad edema reaction). In kind it is in vivo, Wister male rats. Conditions: Rattus norvegicus, po, 20 mg/kg orally, 10 min before induction. On the procedure:
Immediate and late phase allergic response inhibition test
Wister male rats weighing of 200 g were provided. 1010 organisms of Bordetella pertussis and 1 mg of dinitrophenylated ovalbumin (hereinafter abbreviated to "DNP-OA") were intramuscularly administered into the foot pad of the limbs of the rats except for the right hind leg. Further, ten days after the administration, 5 pg/site DNP-OA was subcutaneously administered to the right hind leg to induce allergic foot-pad edema reaction. The inhibitory activity of the test compounds was determined in such a manner that the volume of edema 30 min after the induction of the allergic reaction was regarded as an immediate phase allergic response and the volume of edema 8 hr after the induction of the allergic reaction was regarded as a late phase allergic response. Each test compound was dissolved or suspended in a 0.25% Tween 80 solution, and the solution or suspension was orally administered at a dose of 20 mg/kg 10 min before the induction of the allergic reaction.
Only the 0.25% Tween 80 solution was administered to the control group of rats not treated with any test compound, and 100 mg/kg sodium cromoglicate was subcutaneously or orally administered to the positive control group of rats.
The percentage inhibition of the allergic foot-pad edema reaction was determined by the following equation.
Percentage inhibition of allergic foot-pad edema reaction=(A-B)/A×100
wherein A: average edema volume for the non-treated control group of rats; and
B: average edema volume for the group of rats with the test compound administered.

The test system of a further test is intraperitoneal cells. Nature of the test: Histamine release reaction inhibition test (rat intraperitoneal cells, DNP-As antigen). The class given is cell-based, Wistar male rat. Conditions: 10^-5 to 10^-10 M test compound, DNP-As stimulated intraperitoneal cells, 10^5 cells/ml, read-out: IC50 (dose of the test compound required for inhibiting the histamine release reaction by 50%). On the procedure: Histamine release reaction inhibition test
(1) Preparation of antiserum
Rat anti-dinitrophenylated ascaris protein (hereinafter referred to as "DNP-As") serum was prepared according to the method established by Tada et al. (Tada, T. and Okumura, K., J. Immun. 106(4), 1971). Specifically, 1010 organisms of Bordetella pertussis and 1 mg of DNP-As were intramuscularly administered to the foot pad of the limbs of Brown norway male rats weighing 200 g, and, five days after the administration, 0.5 mg of DNP-As was intramuscularly administered to the back. Three days after that, blood was collected to prepare an antiserum. The titer of the antiserum was determined by using a 48-hr passive cutaneous anaphylaxis reaction using a rat and found to be 1:1000 to 1:2000.
(2) Induction of histamine release reaction and release reaction inhibitory activity
The above serum was diluted four times with physiological brine, and 1 ml of the diluted serum was intraperitoneally administered to a Wistar male rat. Two days after the administration, the abdominal cavity was washed with phosphate buffer, and intraperitoneal cells were collected. The cells were adjusted to 10^5 cells/ml and stimulated with 1 pg/ml DNP-As, and the amount of the histamine released on the supernatant was measured by the method established by Shore et al (Shore, P. A., Burkhalter, A. H. and Chon Jr. V. H. J. Pharm. Exp. Ther., 127 , 182-186 (1959)).
The amount of the released histamine treated with 10^-5 to 10^-10 M test compound was compared with that of non-treated group. The dose of the test compound required for inhibiting the histamine release reaction by 50% (IC50) was calculated based on the percentage inhibition. IC50 of sodium cromoglicate was used as a control.

[2] abbreviates: 0.5 h, edema 30 min after induction, read-out: Inhibition (%) Immediate phase response.
Where [3] appears, read: edema 8 hr after induction, read-out: Inhibition (%) Late phase response.

Molecules are shown by their SMILES. Where a name gives a salt, the structure may show the parent alone. Read-outs that look alike come from different tables or passages of the source.

In general, IC50 refers to the concentration that gives 50% inhibition. Turning to `CN1CCN(CCCOc2ccc3c(=O)c4[nH]nnc4c(=O)[nH]c3c2)CC1` [Example 13, 7-(3-(4-Methyl-1-piperazino)propoxy)-4(5H),10-dioxo-1H-1,2,3-triazolo[4,5-c][1]benzazepine ditrifluoroacetate], the inhibition in vivo at 20 mg/kg in test [1] (setting [2]) and in test [1] (setting [3]) was 28% each time. The concentration for half-maximal inhibition (IC50) with intraperitoneal cells was determined as 11 nM.

For `COC(=O)c1cc2c(s1)CCN(C(=O)CCc1ccc3c(=O)c4[nH]nnc4c(=O)[nH]c3c1)C2` [Example 7, 7-(2-(2-Methoxycarbonyl-4,5,6,7-tetrahydrothieno[3,2-c]pyridin-5-yl)carbonylethyl)-4(5H),10-dioxo-1H-1,2,3-triazolo[4,5-c][1]benzazepine], the figures for the inhibition in vivo at 20 mg/kg in test [1] (setting [2]) and in test [1] (setting [3]) were 20% and -3%, respectively. Besides, the IC50 in the test with intraperitoneal cells worked out at 12 nM.

Regarding `O=C(COc1ccc2c(=O)c3[nH]nnc3c(=O)[nH]c2c1)N(Cc1ccccn1)Cc1ccccn1` [Example 18, 7-(N,N-Bis(2-pyridylmethyl)carbamoylmethyloxy)-4(5H),10-dioxo-1H-1,2,3-triazolo[4,5-c][1]benzazepine ditrifluoroacetate], the inhibition in vivo at 20 mg/kg in test [1] (setting [2]) came out at 40%; in test [1] (setting [3]), 5%. For the same compound, the 50% inhibitory concentration (IC50) in the test on intraperitoneal cells worked out at 6.2 nM.

Regarding `CC(C)Oc1cc2[nH]c(=O)c3nn[nH]c3c(=O)c2cc1OC(C)C` [Example 25, 7,8-diisopropoxy-4(5H),10-dioxo-1H-1,2,3-triazolo[4,5-c][1]benzazepine], the inhibition in vivo at 20 mg/kg in test [1] (setting [2]) was 59%; in test [1] (setting [3]), 38%. The IC50 in the test on intraperitoneal cells was 4.9 nM.

With `COc1cc2[nH]c(=O)c3nn[nH]c3c(=O)c2cc1OC(C)C` [Example 23, 8-Isopropoxy-7-methoxy-4(5H),10-dioxo-1H-1,2,3-triazolo[4,5-c][1]benzazepine], the inhibition in vivo at 20 mg/kg worked out at 71% in test [1] (setting [2]) and 56% in test [1] (setting [3]). Besides, the IC50 with intraperitoneal cells was determined as 2.4 nM.

For the compound `O=C(CCc1ccc2c(=O)c3[nH]nnc3c(=O)[nH]c2c1)NCc1ccccn1` [Example 2, 4(5H),10-dioxo-7-(2-(N-(2-pyridyl)methyl)carbamoyl)ethyl-1H-1,2,3-triazolo[4,5-c][1]benzazepine], the values for the inhibition in vivo at 20 mg/kg in test [1] (setting [2]) and in test [1] (setting [3]) were 57% and 43%, respectively. Moreover, the concentration for half-maximal inhibition (IC50) in the test on intraperitoneal cells worked out at 4.4 nM.

Turning to `O=C(CCc1ccc2c(=O)c3[nH]nnc3c(=O)[nH]c2c1)N(Cc1ccccn1)Cc1ccccn1` [Example 5, 4(5H ),10-Dioxo-7-(2-(N,N-bis(2-pyridylmethyl))carbamoyl)ethyl-1H-1,2,3-triazolo[4,5-c][1]benzazepine], the inhibition in vivo at 20 mg/kg in test [1] (setting [2]) is 40%; in test [1] (setting [3]), 43%. Further, the IC50 with intraperitoneal cells was found to be 2.9 nM.

As for `O=c1[nH]c2cc(/C=C/c3ccncc3)ccc2c(=O)c2[nH]nnc12` [Example 10, 4(5H),10-Dioxo-7-(2-(4-pyridyl)-(E)-ethenyl)-1H-1,2,3-triazolo[4,5-c][1]benzazepine trifluoroacetate], the inhibition in vivo at 20 mg/kg in test [1] (setting [2]) amounted to 44%; in test [1] (setting [3]), 59%. In the test with intraperitoneal cells, the IC50 came to 2.4 nM.

`CN(Cc1ccccn1)C(=O)CCc1ccc2c(=O)c3[nH]nnc3c(=O)[nH]c2c1` [Example 3, 4(5H),10-dioxo-7-(2-(N-methyl-N-(2-pyridyl)methyl)carbamoyl)ethyl-1H-1,2,3-triazolo[4,5-c][1]benzazepine]: the results for the inhibition in vivo at 20 mg/kg in test [1] (setting [2]) and in test [1] (setting [3]) were 44% and 14%, respectively. Besides, in the test with intraperitoneal cells, the 50% inhibitory concentration (IC50) came out at 4.6 nM.

On to `CN1CCN(C(=O)CCc2ccc3c(=O)c4[nH]nnc4c(=O)[nH]c3c2)CC1` [Example 8, 7-(2-(4-Methylpiperazin-1-yl)carbonylethyl)-4(5H),10-dioxo-1H-1,2,3-triazolo[4,5-c][1]benzazepine], for which the inhibition in vivo at 20 mg/kg in test [1] (setting [2]) turned out to be 42%; in test [1] (setting [3]) it was 20%. In the test on intraperitoneal cells, the IC50 is 9.5 nM.

For the compound `CCN(Cc1ccccn1)C(=O)CCc1ccc2c(=O)c3[nH]nnc3c(=O)[nH]c2c1` [Example 4, 7-(2-(N-Ethyl-N-(2-pyridyl)methyl)carbamoyl)ethyl-4(5H),10-dioxo-1H-1,2,3-triazolo[4,5-c][1]benzazepine], the inhibition in vivo at 20 mg/kg in test [1] (setting [2]) was determined as 48%; in test [1] (setting [3]), 21%. Besides, in the test on intraperitoneal cells, the IC50 was 13 nM.

As to `O=c1[nH]c2cc(OCCCN3CCOCC3)ccc2c(=O)c2[nH]nnc12` [Example 12, 7-(3-Morpholinopropoxy)-4(5H),10-dioxo-1H-1,2,3-triazolo[4,5-c][1]benzazepine trifluoroacetate], the inhibition in vivo at 20 mg/kg in test [1] (setting [2]) was determined as 46%; in test [1] (setting [3]) it was 42%. The half-inhibitory concentration (IC50) in the test on intraperitoneal cells turned out to be 3.6 nM.

For `CCN(Cc1ccccn1)C(=O)COc1ccc2c(=O)c3[nH]nnc3c(=O)[nH]c2c1` [Example 15, 7-(N-Ethyl-N-(2-pyridylmethyl)carbamoylmethyloxy)-4(5H),10-dioxo-1H-1,2,3-triazolo[4,5-c][1]benzazepine trifluoroacetate], the inhibition in vivo at 20 mg/kg came out at 34% in test [1] (setting [2]) and 25% in test [1] (setting [3]). Moreover, the IC50 with intraperitoneal cells amounted to 9.9 nM.

`O=c1[nH]c2cc3c(cc2c(=O)c2[nH]nnc12)OCO3` [Example 26, 7,8-Methylenedioxy-4(5H),10-dioxo-1H-1,2,3-triazolo[4,5-c][1]benzazepine]: the inhibition in vivo at 20 mg/kg in test [1] (setting [2]) turned out to be 43%; in test [1] (setting [3]), 29%. Also, the IC50 in the test on intraperitoneal cells was 69 nM.

`O=C(Nc1ccc2c(=O)c3[nH]nnc3c(=O)[nH]c2c1)c1ccc(OCCCCc2ccccc2)cc1` [Example 22, 4(5H),10-Dioxo-7-(4-phenylbutoxybenzoylamino)-1H-1,2,3-triazolo[4,5-c][1]benzazepine]: the inhibition in vivo at 20 mg/kg in test [1] (setting [2]) was 40%; in test [1] (setting [3]) it was 41%. In addition, in the test with intraperitoneal cells, the IC50 was 8.1 nM.

For the compound `O=C(CCc1ccc2c(=O)c3[nH]nnc3c(=O)[nH]c2c1)Nc1ccncc1` [Example 9, 7-(2-(N-(4-Pyridylamino))carbamoyl)ethyl-4(5H),10-dioxo-1H-1,2,3-triazolo[4,5-c][1]benzazepine], the results for the inhibition in vivo at 20 mg/kg in test [1] (setting [2]) and in test [1] (setting [3]) were 30% and 33%, respectively. In addition, the IC50 in the test on intraperitoneal cells stood at 3.9 nM.

On to `O=C(CCc1ccc2c(=O)c3[nH]nnc3c(=O)[nH]c2c1)N1CCc2ccccc2C1` [Example 6, 7-(2-(1,2,3,4-Tetrahydro-2-isoquinolyl)carbonylethyl)-4(5H),10-dioxo-1H-1,2,3-triazolo[4,5-c][1]benzazepine], for which the values for the inhibition in vivo at 20 mg/kg in test [1] (setting [2]) and in test [1] (setting [3]) were 19% and 29%, respectively. For the same compound, the IC50 in the test on intraperitoneal cells came to 4.5 nM.

With `COc1cc2c(=O)c3[nH]nnc3c(=O)[nH]c2c(OC)c1OC` [Example 30, 6,7,8-Trimethoxy-4(5H),10-dioxo-1H-1,2,3-triazolo[4,5-c][1]benzazepine], the inhibition in vivo at 20 mg/kg is 58% in test [1] (setting [2]) and 51% in test [1] (setting [3]). In the test on intraperitoneal cells, the IC50 stood at 8.7 nM.

Turning to `CC(=O)Nc1ccc2c(=O)c3[nH]nnc3c(=O)[nH]c2c1` [Example 21, 7-Acetylamino-4(5H),10-dioxo-1H-1,2,3-triazolo[4,5-c][1]benzazepine], the inhibition in vivo at 20 mg/kg in test [1] (setting [2]) is 43%; in test [1] (setting [3]), 26%. For the same compound, the concentration for half-maximal inhibition (IC50) in the test on intraperitoneal cells was determined as 4.6 nM.
